Biological target: T1, human PI4KIII-beta 13-828 (D316-330) (Homo sapiens, UniProt Q9UBF8)
T1 construct: human PI4KIII-beta 13-828 (D316-330)
Experiment: PI4 KB Activity Assay (ADP-GLO Kinase assay)
Type: biochemical
Conditions: 1 mM ATP, 60 μM phosphatidylinositol, 3 hours at room temperature; read-out: mean pIC50 (converted)
Method: The in vitro inhibition of human PI4KIII-beta 13-828 (D316-330) activity was determined by using the ADP-GLO Kinase assay kit from Promega. Inhibitors were dissolved in 100% DMSO at a concentration of 1 mM. Dilutions were prepared in 100% DMSO using a 1 in 3 serial step dilution. A 60 nL stamp from an 11-point titration was transferred to a white low volume 384 well Greiner assay plate ensuring a final DMSO concentration of 1% across the plate and a top final concentration of inhibitor of 10 μM. The PI4KIII-beta assay contained 25 mM Hepes pH 7.5 (NaOH), 10 mM MgCl2, 0.5 mM EGTA, 0.1% Triton X-100, 2 mM TCEP, and 0.1 mg/ml BSA, 1 mM ATP, 60 μM phosphatidylinositol, and 1.5 nM human PI4K-beta 13-828 (D316-330) in a total volume of 6 μL. The assay was initiated with the addition of enzyme, covered, and incubated at room temperature for 3 hours. The assays were stopped with the addition of 6 μl ADP-GLO Reagent containing 0.1% CHAPS to deplete the unconsumed ATP. The plates were incubated at room temperature for 60 min and then 12 μl of the Kinase Detection Reagent containing 0.1% CHAPS was added to convert ADP to ATP and introduce luciferase and luciferin. After 40 min incubation at room temperature the luminescent signal was read on a BMG Labtech PHERAstar FS with the following settings; Gain 3600, Focal height 13.7 mm, measurement interval time 1 s, Settling time 0.2 s. The inhibitory effect of the PI4K-beta activity of the compounds was evaluated by the IC50 of the response relative to the high, no compound, and low, no enzyme, controls by fitting to the four parameter dose response question.

T1 sequence (Q9UBF8 1-801 isoform Q9UBF8-2): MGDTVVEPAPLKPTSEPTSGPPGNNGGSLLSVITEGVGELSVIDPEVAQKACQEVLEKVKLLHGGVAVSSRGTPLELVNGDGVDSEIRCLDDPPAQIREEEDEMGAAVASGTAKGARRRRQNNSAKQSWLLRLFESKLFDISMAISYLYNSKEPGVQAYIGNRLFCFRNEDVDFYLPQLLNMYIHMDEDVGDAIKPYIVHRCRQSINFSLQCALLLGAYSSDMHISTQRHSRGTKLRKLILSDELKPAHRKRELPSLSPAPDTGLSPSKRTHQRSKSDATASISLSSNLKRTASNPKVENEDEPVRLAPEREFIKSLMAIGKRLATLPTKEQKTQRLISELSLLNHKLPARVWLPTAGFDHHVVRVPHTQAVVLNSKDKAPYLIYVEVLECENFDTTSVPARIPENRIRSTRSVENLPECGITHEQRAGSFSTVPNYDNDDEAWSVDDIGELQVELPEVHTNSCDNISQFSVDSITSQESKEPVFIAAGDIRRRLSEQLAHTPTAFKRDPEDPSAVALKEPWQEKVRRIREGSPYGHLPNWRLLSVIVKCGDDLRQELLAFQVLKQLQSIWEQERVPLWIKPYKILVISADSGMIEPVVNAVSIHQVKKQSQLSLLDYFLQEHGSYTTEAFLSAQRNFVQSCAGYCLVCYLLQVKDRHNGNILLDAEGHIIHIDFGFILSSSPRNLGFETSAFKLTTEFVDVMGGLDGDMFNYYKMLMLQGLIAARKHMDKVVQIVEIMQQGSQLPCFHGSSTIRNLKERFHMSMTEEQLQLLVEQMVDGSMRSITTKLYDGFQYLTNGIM

IC50, ≤ 3.98 nM:
CCC(CO)c1cc(NCc2cccc(-c3nccn3C)c2)n2nc(C)c(-c3ccc(OC)c(S(=O)(=O)CCO)c3)c2n1 (stereo not shown) [Compound 86, 2-(3-(3-((2-Hydroxyethyl)sulfonyl)-4-methoxyphenyl)-2-methyl-7-((3-(1-methyl-1H-imidazol-2-yl)benzyl)amino)pyrazolo[1,5-a]pyrimidin-5-yl)butan-1-ol]
CCN(CCO)C(=O)c1cc(-c2c(C)nn3c(NCc4cccc(-c5nccn5C)c4)cc(C(C)O)nc23)ccc1OC (stereo not shown) [Compound 11]
CCC(CO)c1cc(NCc2cccc(-c3nccn3C)c2)n2nc(C)c(-c3ccc(C)c(C(=O)N(C)CCCO)c3)c2n1 (single isomer, unassigned) [Compound 66, 5-(5-(1-Hydroxybutan-2-yl)-2-methyl-7-((3-(1-methyl-1H-imidazol-2-yl)benzyl)amino)pyrazolo[1,5-a]pyrimidin-3-yl)-N-(3-hydroxypropyl)-N,2-dimethylbenzamide]
Cc1ccc(-c2c(C)nn3c(NCc4cccc(-c5nccn5C)c4)cc(C(C)(C)O)nc23)cc1C(=O)N(C)C1CCOCC1 [Compound 45]
Cc1ccc(-c2c(C)nn3c(NCc4cccc(-c5nccn5C)c4)cc(C(C)(C)O)nc23)cc1C(=O)N(C)[C@H](C)CO [Compound 39]
Cc1nn2c(NCc3cccc(-c4nccn4C)c3)cc(C(C)O)nc2c1-c1ccc(Cl)c(C(=O)N2CC[C@H](O)C2)c1 (stereo partly shown) [Compound 14]
COc1ccc(-c2c(C)nn3c(NCc4cccc(-n5cccn5)c4)cc(C(C)(C)O)nc23)cc1C(=O)N(C)CCCO [Compound 33]
Cc1ccc(-c2c(C)nn3c(NCc4cccc(-c5nccn5C)c4)cc(C(C)(C)O)nc23)cc1C(=O)N1CC[C@H](O)C1 [Compound 29, (S)-(5-(5-(2-hydroxypropan-2-yl)-2-methyl-7-((3-(1-methyl-1H-imidazol-2-yl)benzyl)amino)pyrazolo[1,5-a]pyrimidin-3-yl)-2-methylphenyl)(3-hydroxypyrrolidin-1-yl)methanone]
Cc1ccc(-c2c(C)nn3c(NCc4cccc(-c5nccn5C)c4)cc(C(C)(C)O)nc23)cc1C(=O)N(C)C(C)CO (stereo not shown) [Compound 40]
Cc1ccc(-c2c(C)nn3c(NCc4cccc(-c5nccn5C)c4)cc(C(C)(C)O)nc23)cc1C(=O)N1CCC[C@@H]1CO [Compound 25, (R)-(2-(hydroxymethyl)pyrrolidin-1-yl)(5-(5-(2-hydroxypropan-2-yl)-2-methyl-7-((3-(1-methyl-1H-imidazol-2-yl)benzyl)amino)pyrazolo[1,5-a]pyrimidin-3-yl)-2-methylphenyl)methanone]
COc1ccc(-c2c(C)nn3c(NCc4cccc(-c5nccn5C)c4)cc(C(C)(C)O)nc23)cc1C(=O)N(C)C(C)CO (stereo not shown) [Compound 42]
Cc1nn2c(NCc3cccc(-c4nccn4C)c3)cc(C(C)(C)O)nc2c1-c1ccc(Cl)c(C(=O)N(C)CCO)c1 [Compound 37, 2-Chloro-N-(2-hydroxyethyl)-5-(5-(2-hydroxypropan-2-yl)-2-methyl-7-((3-(1-methyl-1H-imidazol-2-yl)benzyl)amino)pyrazolo[1,5-a]pyrimidin-3-yl)-N-methylbenzamide]
Cc1ccc(-c2c(C)nn3c(NCc4cccc(-n5cccn5)c4)cc(C(C)(C)O)nc23)cc1C(=O)N1CCC[C@@H]1CO [Compound 35]
Cc1ccc(-c2c(C)nn3c(NCc4cccc(-c5nccn5C)c4)cc(C(C)(C)O)nc23)cc1C(=O)N1CCC(O)C1 (stereo not shown) [Compound 41]
COc1ccc(-c2c(C)nn3c(NCc4cccc(-c5nccn5C)c4)cc(C(C)O)nc23)cc1S(C)(=O)=O (stereo not shown) [Compound 1, 1-(3-(4-Methoxy-3-(methylsulfonyl)phenyl)-2-methyl-7-((3-(1-methyl-1H-imidazol-2-yl)benzyl)amino)pyrazolo[1,5-a]pyrimidin-5-yl)ethanol]
Cc1ccc(-c2c(C)nn3c(NCc4cccc(-c5nccn5C)c4)cc(C(C)(C)O)nc23)cc1C(=O)N(C)C1CCOC1 (stereo not shown) [Compound 59, 5-(5-(2-Hydroxypropan-2-yl)-2-methyl-7-((3-(1-methyl-1H-imidazol-2-yl)benzyl)amino)pyrazolo[1,5-a]pyrimidin-3-yl)-N,2-dimethyl-N-(tetrahydrofuran-3-yl)benzamide]
Cc1nn2c(NCc3cccc(-c4nccn4C)c3)cc(C(C)O)nc2c1-c1ccc(Cl)c(C(=O)N(C)CCCO)c1 (single isomer, unassigned) [Compound 57, 2-Chloro-5-(5-(1-hydroxyethyl)-2-methyl-7-((3-(1-methyl-1H-imidazol-2-yl)benzyl)amino)pyrazolo[1,5-a]pyrimidin-3-yl)-N-(3-hydroxypropyl)-N-methylbenzamide]
COc1ccc(-c2c(C)nn3c(NCc4cccc(-c5nccn5C)c4)cc(C(C)(C)O)nc23)cc1S(=O)(=O)CCO [Compound 6, 2-(3-(3-((2-Hydroxyethyl)sulfonyl)-4-methoxyphenyl)-2-methyl-7-((3-(1-methyl-1H-imidazol-2-yl)benzyl)amino)pyrazolo[1,5-a]pyrimidin-5-yl)propan-2-ol]
CCN(CCO)C(=O)c1cc(-c2c(C)nn3c(NCc4cccc(-c5nccn5C)c4)cc(C(C)O)nc23)ccc1Cl (stereo not shown) [Compound 15, 2-chloro-N-ethyl-N-(2-hydroxyethyl)-5-(5-(1-hydroxyethyl)-2-methyl-7-((3-(1-methyl-1H-imidazol-2-yl)benzyl)amino)pyrazolo[1,5-a]pyrimidin-3-yl)benzamide]
CCC(O)c1cc(NCc2cccc(-c3nccn3C)c2)n2nc(C)c(-c3ccc(C)c(C(=O)N(C)[C@@H](C)CO)c3)c2n1 (single isomer, unassigned) [Compound 80]
COc1ccc(-c2c(C)nn3c(NCc4cccc(-c5nccn5C)c4)cc(C(C)(C)CO)nc23)cc1S(=O)(=O)CCO [Compound 56, 2-(3-(3-((2-Hydroxyethyl)sulfonyl)-4-methoxyphenyl)-2-methyl-7-((3-(1-methyl-1H-imidazol-2-yl)benzyl)amino)pyrazolo[1,5-a]pyrimidin-5-yl)-2-methylpropan-1-ol]
CCC(O)c1cc(NCc2cccc(-c3nccn3C)c2)n2nc(C)c(-c3ccc(OC)c(S(=O)(=O)CCO)c3)c2n1 (stereo not shown) [Compound 3]
